Where “and” joins values, the source holds several entries; their conditions need not be identical. Identical values can stand only once. Inconclusive results and toxic doses are left out. The calls were made as follows: active = survival T/C of 150% or more; inactive = T/C below 125% in these data.
Tested on: CD2F1 mice, L1210 leukemia ip, survival T/C
Test: NCI In Vivo Anticancer Drug Screen. Data for tumor model L1210 Leukemia (intraperitoneal) in CD2F1 (CDF1) mice
Details: higher = longer survival
Procedure, shortened: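 Compound-dosed mice with transplantable tumor versus matched vehicle controls; endpoint ratio T/C reported.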

[1] = endpoint: mean survival time, dose: 100.0 mg/kg/injection, schedule: Q01DX001 (ip), vehicle: saline with Tween-80
[2] = endpoint: mean survival time, dose: 200.0 mg/kg/injection, schedule: Q01DX001 (ip), vehicle: saline with Tween-80
[3] = endpoint: mean survival time, dose: 400.0 mg/kg/injection, schedule: Q01DX001 (ip), vehicle: saline with Tween-80
[4] = endpoint: mean survival time, dose: 50.0 mg/kg/injection, schedule: Q01DX009 (ip), vehicle: saline with Tween-80
[5] = endpoint: mean survival time, dose: 100.0 mg/kg/injection, schedule: Q01DX009 (ip), vehicle: saline with Tween-80
[6] = endpoint: mean survival time, dose: 200.0 mg/kg/injection, schedule: Q01DX009 (ip), vehicle: saline with Tween-80
[7] = endpoint: mean survival time, dose: 100.0 mg/kg/injection, schedule: Q04DX003 (ip), vehicle: saline with Tween-80
[8] = endpoint: mean survival time, dose: 200.0 mg/kg/injection, schedule: Q04DX003 (ip), vehicle: saline with Tween-80
[9] = endpoint: mean survival time, dose: 400.0 mg/kg/injection, schedule: Q01DX009 (ip), vehicle: saline with Tween-80
[10] = endpoint: mean survival time, dose: 25.0 mg/kg/injection, schedule: Q01DX009 (ip), vehicle: saline with Tween-80

Measured: T/C

C[n+]1c(-c2cccc3ccccc23)c2cc(N)ccc2c2ccccc21
inactive: endpoint: mean survival time, dose: 0.78 mg/kg/injection, schedule: Q01DX009 (ip), vehicle: water 106 % of control | endpoint: mean survival time, dose: 1.56 mg/kg/injection, schedule: Q01DX009 (ip), vehicle: saline 108 % of control | endpoint: mean survival time, dose: 1.56 mg/kg/injection, schedule: Q01DX009 (ip), vehicle: water 103 % of control | endpoint: mean survival time, dose: 3.12 mg/kg/injection, schedule: Q01DX009 (ip), vehicle: saline 118 % of control | endpoint: mean survival time, dose: 3.13 mg/kg/injection, schedule: Q01DX009 (ip), vehicle: water 111 % of control | endpoint: mean survival time, dose: 3.5 mg/kg/injection, schedule: Q01DX009 (ip), vehicle: water 104 % of control | endpoint: mean survival time, dose: 5.3 mg/kg/injection, schedule: Q01DX009 (ip), vehicle: water 106 % of control | endpoint: mean survival time, dose: 6.25 mg/kg/injection, schedule: Q01DX009 (ip), vehicle: saline 106 % of control | endpoint: mean survival time, dose: 6.25 mg/kg/injection, schedule: Q01DX009 (ip), vehicle: water 97 % of control and 110 % of control | endpoint: mean survival time, dose: 8.0 mg/kg/injection, schedule: Q01DX009 (ip), vehicle: water 114 % of control | endpoint: mean survival time, dose: 12.0 mg/kg/injection, schedule: Q01DX009 (ip), vehicle: water 121 % of control | endpoint: mean survival time, dose: 12.5 mg/kg/injection, schedule: Q01DX009 (ip), vehicle: saline 116 % of control | endpoint: mean survival time, dose: 12.5 mg/kg/injection, schedule: Q01DX009 (ip), vehicle: water 119 % of control and 122 % of control | endpoint: mean survival time, dose: 18.0 mg/kg/injection, schedule: Q01DX009 (ip), vehicle: water 112 % of control | endpoint: mean survival time, dose: 25.0 mg/kg/injection, schedule: Q01DX009 (ip), vehicle: saline 93 % of control

O=c1c2ccccc2sc2ccc3ccccc3c12
inactive: [1] 106 % of control | [2] 101 % of control | [3] 101 % of control

COc1cc(OC)c(NC(=O)OCCOc2ccc(Br)cc2)cc1Cl
inactive: [4] 90 % of control | [5] 90 % of control | [6] 97 % of control

CC1CN(Cc2ccccc2O)CC(C)N1 (stereo unspecified)
inactive: endpoint: mean survival time, dose: 25.0 mg/kg/injection, schedule: Q01DX005 (ip), vehicle: water 96 % of control | endpoint: mean survival time, dose: 50.0 mg/kg/injection, schedule: Q01DX005 (ip), vehicle: water 94 % of control | endpoint: mean survival time, dose: 100.0 mg/kg/injection, schedule: Q01DX005 (ip), vehicle: water 94 % of control

CCCCCCC(C)Oc1ccccc1Cl (stereo unspecified)
inactive: endpoint: mean survival time, dose: 100.0 mg/kg/injection, schedule: Q04DX002 (ip), vehicle: saline with Tween-80 107 % of control | endpoint: mean survival time, dose: 200.0 mg/kg/injection, schedule: Q04DX002 (ip), vehicle: saline with Tween-80 86 % of control | endpoint: mean survival time, dose: 400.0 mg/kg/injection, schedule: Q04DX002 (ip), vehicle: saline with Tween-80 96 % of control

O/N=C/c1cc[n+](CCC[n+]2ccc(/C=N/O)cc2)cc1
inactive: endpoint: mean survival time, dose: 5.0 mg/kg/injection, schedule: Q01DX009 (ip), vehicle: saline sonified 98 % of control | endpoint: mean survival time, dose: 5.0 mg/kg/injection, schedule: Q04DX003 (ip), vehicle: saline 103 % of control | endpoint: mean survival time, dose: 10.0 mg/kg/injection, schedule: Q01DX009 (ip), vehicle: saline sonified 98 % of control | endpoint: mean survival time, dose: 10.0 mg/kg/injection, schedule: Q04DX003 (ip), vehicle: saline 105 % of control | endpoint: mean survival time, dose: 20.0 mg/kg/injection, schedule: Q01DX009 (ip), vehicle: saline sonified 95 % of control | endpoint: mean survival time, dose: 20.0 mg/kg/injection, schedule: Q04DX003 (ip), vehicle: saline 101 % of control

Nc1cc2c(c[n+](CCCBr)c3ccccc23)c2ccccc12
inactive: endpoint: mean survival time, dose: 3.13 mg/kg/injection, schedule: Q04DX003 (ip), vehicle: other 111 % of control | endpoint: mean survival time, dose: 6.25 mg/kg/injection, schedule: Q04DX003 (ip), vehicle: other 122 % of control | endpoint: mean survival time, dose: 12.5 mg/kg/injection, schedule: Q04DX003 (ip), vehicle: other 120 % of control | endpoint: mean survival time, dose: 25.0 mg/kg/injection, schedule: Q04DX003 (ip), vehicle: other 109 % of control | endpoint: mean survival time, dose: 50.0 mg/kg/injection, schedule: Q04DX003 (ip), vehicle: other 87 % of control

O=C1c2ccccc2S(=O)(=O)N1CCBr
inactive: [5] 97 % of control | [7] 106 % of control | [6] 100 % of control | [8] 106 % of control | [9] 102 % of control | endpoint: mean survival time, dose: 400.0 mg/kg/injection, schedule: Q04DX003 (ip), vehicle: saline with Tween-80 110 % of control

O=CN1CCCCC1
inactive: endpoint: mean survival time, dose: 100.0 mg/kg/injection, schedule: Q04DX002 (ip), vehicle: saline 97 % of control | endpoint: mean survival time, dose: 200.0 mg/kg/injection, schedule: Q04DX002 (ip), vehicle: saline 108 % of control

OC(CC(CC(O)(C(F)(F)F)C(F)(F)F)=NNc1ccccc1)(C(F)(F)F)C(F)(F)F
inactive: [10] 92 % of control | [4] 93 % of control

O=P(NC1CCCCC1)(NC1CCCCC1)NC1CCCCC1
inactive: endpoint: mean survival time, dose: 50.0 mg/kg/injection, schedule: Q04DX003 (ip), vehicle: saline with Tween-80 93 % of control | [7] 90 % of control | [8] 91 % of control

O=C(COc1ccc(Cl)cc1C(=O)O)NCc1cccc(NC(=O)Nc2cccc(S(=O)(=O)F)c2)c1
inactive: [1] 91 % of control | [2] 93 % of control | [3] 88 % of control

COc1nc(NC2OC(CO)C(O)C(O)C2O)c(I)c(=O)[nH]1 (stereo unspecified)
inactive: endpoint: median survival time, dose: 12.5 mg/kg/injection, schedule: Q01DX005 (ip), vehicle: saline 109 % of control | endpoint: median survival time, dose: 25.0 mg/kg/injection, schedule: Q01DX005 (ip), vehicle: saline 107 % of control | endpoint: median survival time, dose: 50.0 mg/kg/injection, schedule: Q01DX005 (ip), vehicle: saline 100 % of control | endpoint: median survival time, dose: 100.0 mg/kg/injection, schedule: Q01DX005 (ip), vehicle: saline 101 % of control | endpoint: median survival time, dose: 200.0 mg/kg/injection, schedule: Q01DX005 (ip), vehicle: saline 100 % of control

CCOC(=O)/C(C#N)=C(\C)c1cccc(C)c1
inactive: [10] 102 % of control | [4] 98 % of control | [5] 103 % of control | [7] 105 % of control

CCOC(=O)Nc1ccccc1F
inactive: [5] 98 % of control | [6] 107 % of control | [9] 95 % of control

O=C1C2C3C=CC(C3)C2C(=O)N1O (stereo unspecified)
inactive: endpoint: mean survival time, dose: 50.0 mg/kg/injection, schedule: Q01DX001 (ip), vehicle: carboxymethylcellulose (CMC) 106 % of control | endpoint: mean survival time, dose: 100.0 mg/kg/injection, schedule: Q01DX001 (ip), vehicle: carboxymethylcellulose (CMC) 100 % of control | endpoint: mean survival time, dose: 200.0 mg/kg/injection, schedule: Q01DX001 (ip), vehicle: carboxymethylcellulose (CMC) 112 % of control | endpoint: mean survival time, dose: 400.0 mg/kg/injection, schedule: Q01DX001 (ip), vehicle: carboxymethylcellulose (CMC) 96 % of control

COC(=O)C1OC(OC(C)=O)C(OC(C)=O)C(OC(C)=O)C1C(=O)OC (stereo unspecified)
inactive: [1] 93 % of control | [5] 101 % of control | [2] 95 % of control | [6] 105 % of control | [3] 93 % of control | [9] 105 % of control

CCOC(=O)C(C(=O)OCC)[N+](=O)[O-]
inactive: endpoint: mean survival time, dose: 50.0 mg/kg/injection, schedule: Q04DX003 (ip), vehicle: saline 102 % of control | endpoint: mean survival time, dose: 100.0 mg/kg/injection, schedule: Q01DX001 (ip), vehicle: saline 97 % of control | endpoint: mean survival time, dose: 100.0 mg/kg/injection, schedule: Q04DX003 (ip), vehicle: saline 100 % of control | endpoint: mean survival time, dose: 200.0 mg/kg/injection, schedule: Q01DX001 (ip), vehicle: saline 95 % of control | endpoint: mean survival time, dose: 200.0 mg/kg/injection, schedule: Q04DX003 (ip), vehicle: saline 105 % of control

— PubChem BioAssay AID256 (DTP/NCI, 2004)
